# Measurements taken from patent US20230266302A1, “SYNTHESIS AND USE OF N-BENZYL SULFONAMIDES” (THE UNIVERSITY OF TULSA, priority 2020, published 2023).
# Columns and labels:
# Assay in all cases: ATP level assay (CellTiter-Glo), percent of control
# Format in all cases: cell-based
# [1] = system: BxPC3 (pancreatic cancer); conditions: two hour incubation; for activity at 100 µM: Homo sapiens, BXPC-3, 2 h, compound alone, control DMSO, read-out: POC (percent of control) BxPC3
# [2] = system: H293 (kidney cancer); conditions: two hour incubation; for activity at 100 µM: 2 h, compound alone, control DMSO, read-out: POC (percent of control) H293
# [3] = system: HDF (normal cells); conditions: two hour incubation; for activity at 100 µM: 2 h, compound alone, control DMSO, read-out: POC (percent of control) HDF
# [4] = system: HeLa (cervical cancer); conditions: two hour incubation; for activity at 100 µM: Homo sapiens, HeLa, 2 h, compound alone, control DMSO, read-out: POC (percent of control) HeLa
# [5] = system: MCF10A (non-cancerous breast); conditions: two hour incubation; for activity at 100 µM: Homo sapiens, MCF-10A, 2 h, compound alone, control DMSO, read-out: POC (percent of control) MCF10A
# [6] = system: MCF7 (breast cancer); conditions: two hour incubation; for activity at 100 µM: Homo sapiens, MCF7, 2 h, compound alone, control DMSO, read-out: POC (percent of control) MCF7
# [7] = system: MDA-MB (breast cancer); conditions: two hour incubation; for activity at 100 µM: 2 h, compound alone, control DMSO, read-out: POC (percent of control) MDA-MB
# [8] = system: NCI-H196 (lung cancer); conditions: two hour incubation; for activity at 100 µM: NCI-H196, 2 h, compound alone, control DMSO, read-out: POC (percent of control) NCI-H196
# [9] = system: PC3 (prostate cancer); conditions: two hour incubation; for activity at 100 µM: 2 h, compound alone, control DMSO, read-out: POC (percent of control) PC3
# [10] = system: SkBr3 (breast cancer); conditions: two hour incubation; for activity at 100 µM: Homo sapiens, SK-BR-3, 2 h, compound alone, control DMSO, read-out: POC (percent of control) SkBr3
# [11] = system: T47D (breast cancer); conditions: two hour incubation; for activity at 100 µM: Homo sapiens, T47D, 2 h, compound alone, control DMSO, read-out: POC (percent of control) T47D
# [12] = compound 100 uM + 2DG (about 10-20 mM)
# [13] = compound 100 uM + rotenone (approximately 1.25 μM)
smiles,measurement,setting,value
"Cn1cc(CNS(=O)(=O)c2ccc(Cl)cc2)c2ccccc21 [Compound 29, 4-chloro-N-[(1-methyl-1H-indol-3-yl)methyl]benzenesulfonamide]",activity at 100 µM,[1],80.8%
same,POC (percent of control) BxPC3,[1]; [12],51.7% of control
same,POC (percent of control) BxPC3,[1]; [13],52.7% of control
same,activity at 100 µM,[2],91.2%
same,POC (percent of control) H293,[2]; [12],55% of control
same,POC (percent of control) H293,[2]; [13],50.5% of control
same,activity at 100 µM,[3],95.8%
same,POC (percent of control) HDF,[3]; [12],73% of control
same,POC (percent of control) HDF,[3]; [13],81.5% of control
same,activity at 100 µM,[4],80.9%
same,POC (percent of control) HeLa,[4]; [12],83.9% of control
same,POC (percent of control) HeLa,[4]; [13],93.1% of control
same,activity at 100 µM,[5],78.9%
same,POC (percent of control) MCF10A,[5]; [12],46.2% of control
same,POC (percent of control) MCF10A,[5]; [13],62.7% of control
same,activity at 100 µM,[6],105%
same,POC (percent of control) MCF7,[6]; [12],90.9% of control
same,POC (percent of control) MCF7,[6]; [13],98% of control
same,activity at 100 µM,[7],81.1%
same,POC (percent of control) MDA-MB,[7]; [12],64.7% of control
same,POC (percent of control) MDA-MB,[7]; [13],69.7% of control
same,activity at 100 µM,[8],192%
same,POC (percent of control) NCI-H196,[8]; [12],51.3% of control
same,POC (percent of control) NCI-H196,[8]; [13],100.3% of control
same,activity at 100 µM,[9],77.8%
same,POC (percent of control) PC3,[9]; [12],67.5% of control
same,POC (percent of control) PC3,[9]; [13],67% of control
same,activity at 100 µM,[10],102%
same,POC (percent of control) SkBr3,[10]; [12],72.5% of control
same,POC (percent of control) SkBr3,[10]; [13],78.6% of control
same,activity at 100 µM,[11],90%
same,POC (percent of control) T47D,[11]; [12],60.7% of control
same,POC (percent of control) T47D,[11]; [13],77.6% of control
"Cc1cccc2[nH]cc(CNS(=O)(=O)c3ccc(Cl)cc3)c12 [Compound 30, 4-chloro-N-[(4-methyl-1H-indol-3-yl)methyl]benzenesulfonamide]",activity at 100 µM,[1],15.8%
same,POC (percent of control) BxPC3,[1]; [12],6.3% of control
same,POC (percent of control) BxPC3,[1]; [13],45.7% of control
same,activity at 100 µM,[2],14%
same,POC (percent of control) H293,[2]; [12],12.8% of control
same,POC (percent of control) H293,[2]; [13],9.5% of control
same,activity at 100 µM,[3],28.2%
same,POC (percent of control) HDF,[3]; [12],28.4% of control
same,POC (percent of control) HDF,[3]; [13],66.2% of control
same,activity at 100 µM,[4],28.5%
same,POC (percent of control) HeLa,[4]; [12],17.8% of control
same,POC (percent of control) HeLa,[4]; [13],58.4% of control
same,activity at 100 µM,[5],30%
same,POC (percent of control) MCF10A,[5]; [12],8.4% of control
same,POC (percent of control) MCF10A,[5]; [13],34.6% of control
same,activity at 100 µM,[6],37.4%
same,POC (percent of control) MCF7,[6]; [12],11.3% of control
same,POC (percent of control) MCF7,[6]; [13],36% of control
same,activity at 100 µM,[7],38.6%
same,POC (percent of control) MDA-MB,[7]; [12],41.5% of control
same,POC (percent of control) MDA-MB,[7]; [13],48.3% of control
same,activity at 100 µM,[8],48%
same,POC (percent of control) NCI-H196,[8]; [12],18.7% of control
same,POC (percent of control) NCI-H196,[8]; [13],18.4% of control
same,activity at 100 µM,[9],7.1%
same,POC (percent of control) PC3,[9]; [12],10.6% of control
same,POC (percent of control) PC3,[9]; [13],21.7% of control
same,activity at 100 µM,[10],64.1%
same,POC (percent of control) SkBr3,[10]; [12],41.3% of control
same,POC (percent of control) SkBr3,[10]; [13],58.2% of control
same,activity at 100 µM,[11],16.1%
same,POC (percent of control) T47D,[11]; [12],13.2% of control
same,POC (percent of control) T47D,[11]; [13],28% of control
